Patent US10688197B2, “Non-alcoholic fatty liver regulator 14-3-3 protein” (Korea University Research and Business Foundation, priority 2015, dated 2020)

Legend:
[1] = tested on: HepG2 cells; assay: mRNA expression by PCR in HepG2 cells; format: cell-based, human; settings: for mRNA expression of SREBP-1c and FAT/CD36: HepG2, overexpression, 200 μM oleic acid 72 hours, FIG. 7A
Experimental: (§1) For mRNA extraction, the corresponding cells were lysed with 1 ml/well of TRIzol (Invitrogen), 200 μl of chloroform was added thereto and mixed well, the resultant cells were maintained at room temperature for 5 minutes and then centrifuged at 12,000×g and 4° C. for 15 minutes, the obtained supernatant was mixed with 500 μl of isopropanol and then put on ice for 10 minutes, the resulting supernatant was centrifuged at 12,000×g and 4° C. for 15 minutes to remove a supernatant, and then pellets were dissolved with tertiary distilled water treated with diethyl pyrocarbonate (DEPC). 2 μg of mRNA was synthesized into cDNA using a Superscript First Strand cDNA Synthesis Kit (Bioneer, Daejeon, South Korea) and the synthesized cDNA as a template was amplified through polymerase chain reaction (PCR) using primers specific to PPARγ2, 14-3-3β, 14-3-3γ, SREBP-1c, SCD-1, ACC, FABP, FAT/CD36, and β-actin of humans, and was amplified through real-time PCR using primers specific to PPARγ2, 14-3-3β, 14-3-3γ, SREBP-1c, FAT/CD36, and GAPDH of mice. β-actin and GAPDH were used as controls to see whether mRNAs of the respective cells were compared in the same amount.
HepG2 cells were seeded in a 6-well plate at a density of 4×10^5 cells per each well, and then transfected with GFP-14-3-3β DNA (4 μg) or GFP-14-3-3γ DNA (4 μg) using an E-fection plus reagent (Lugen). A ratio of DNA to the E-fection plus reagent was 1:2, and this method was performed according to a manufacturer's manual. After transfection, […], and for mRNA extraction, the corresponding cells were lysed with 1 ml/well of TRIzol (Invitrogen), 200 μl of chloroform was added thereto and mixed well, the resultant cells were maintained at room temperature for 5 minutes and then centrifuged at 12,000×g and 4° C. for 15 minutes, the obtained supernatant was mixed with 500 μl of isopropanol and then put on ice for 10 minutes, and the resulting supernatant was centrifuged at 12,000×g and 4° C. for 15 minutes to remove a supernatant, and then pellets were dissolved with tertiary distilled water treated with diethyl pyrocarbonate (DEPC). 2 μg of mRNA was synthesized into cDNA using a Superscript First Strand cDNA Synthesis Kit (Bioneer, Daejeon, South Korea) and the synthesized cDNA as a template was amplified through polymerase chain reaction (PCR) using primers specific to PPARγ2 (SEQ ID NOS: 1 and 2), 14-3-3β (SEQ ID NOS: 3 and 4), 14-3-3γ (SEQ ID NOS: 5 and 6), SREBP-1c, FAT/CD36, and β-actin of humans, and was amplified through real-time PCR using primers specific to SREBP-1c, FAT/CD36, and GAPDH of mice. β-actin and GAPDH were used as controls to see whether mRNAs of the respective cells were compared in the same amount.

[2] = tested on: primary mouse hepatocytes; assay: mRNA expression by real-time PCR in primary mouse hepatocytes; format: cell-based; settings: for mRNA expression of SREBP-1c and FAT/CD36: overexpression, oleic acid, FIG. 7B
Experimental: as §1, with “HepG2 cells and primary mouse hepatocytes were separately seeded in a 6-well plate at a density of 4×10^5 cells per each well, and then treated with 200 μM of oleic acid (OA) for 72 hours. For” for “For”
HepG2 cells were seeded in a 6-well plate at a density of 4×10^5 cells per each well, and then transfected with GFP-14-3-3β DNA (4 μg) or GFP-14-3-3γ DNA (4 μg) using an E-fection plus reagent (Lugen). A ratio of DNA to the E-fection plus reagent was 1:2, and this method was performed according to a manufacturer's manual. After transfection, the cells were treated with 200 μM of oleic acid (OA) for 72 hours, and for mRNA extraction, the corresponding cells were lysed with 1 ml/well of TRIzol (Invitrogen), 200 μl of chloroform was added thereto and mixed well, the resultant cells were maintained at room temperature for 5 minutes and then centrifuged at 12,000×g and 4° C. for 15 minutes, the obtained supernatant was mixed with 500 μl of isopropanol and then put on ice for 10 minutes, and the resulting supernatant was centrifuged at 12,000×g and 4° C. for 15 minutes to remove a supernatant, and then pellets were dissolved with tertiary distilled water treated with diethyl pyrocarbonate (DEPC). 2 μg of mRNA was synthesized into cDNA using a Superscript First Strand cDNA Synthesis Kit (Bioneer, Daejeon, South Korea) and the synthesized cDNA as a template was amplified through polymerase chain reaction (PCR) using primers specific to PPARγ2 (SEQ ID NOS: 1 and 2), 14-3-3β (SEQ ID NOS: 3 and 4), 14-3-3γ (SEQ ID NOS: 5 and 6), SREBP-1c, FAT/CD36, and β-actin of humans, and was amplified through real-time PCR using primers specific to SREBP-1c, FAT/CD36, and GAPDH of mice. β-actin and GAPDH were used as controls to see whether mRNAs of the respective cells were compared in the same amount.

[3] = tested on: HepG2 cells; assay: Oil Red-O lipid accumulation in HepG2 cells; format: cell-based, human; settings: for lipid accumulation by oleic acid: HepG2, overexpression, 200 μM oleic acid 72 hours, FIG. 9B
Experimental: HepG2 cells and primary mouse hepatocytes were separately seeded in a 6-well plate at a density of 4×10^5 cells per each well, and then transfected with GFP-14-3-3β DNA (1 μg) or GFP-14-3-3γ DNA (1 μg) and si-14-3-3β (10 μM, Santa Cruz) or si-14-3-3γ (10 μM, Santa Cruz) using an E-fection plus reagent (Lugen). A ratio of DNA to the E-fection plus reagent was 1:2, and this method was performed according to a manufacturer's manual. […] The stained cells were bleached with 1 ml of isopropanol and analyzed at a wavelength of 550 nm using a DU530 spectrophotometer (Beckman Instruments, Palo Alto, Calif.).

| Compound | mRNA expression of SREBP-1c and FAT/CD36 [1] | mRNA expression of SREBP-1c and FAT/CD36 [2] | lipid accumulation by oleic acid [3] | mRNA expression of PPARγ2 ([1]; HepG2, oleic acid concentration-dependent, FIG. 6A) | mRNA expression of lipid metabolism-associated genes (PPARγ2 target genes) ([1]; HepG2, oleic acid concentration-dependent, FIG. 6C) | mRNA expression amounts of 14-3-3β and 14-3-3γ ([1]; HepG2, oleic acid treatment, FIG. 6A) | mRNA expression of PPARγ2 ([2]; oleic acid concentration-dependent, FIG. 6B) | mRNA expression of lipid metabolism-associated genes (PPARγ2 target genes) ([2]; oleic acid concentration-dependent, FIG. 6D) | mRNA expression amounts of 14-3-3β and 14-3-3γ ([2]; oleic acid treatment, FIG. 6B) | lipid accumulation ([3]; HepG2, concentration-dependent treatment of oleic acid, FIG. 9A) |
| --- | --- | --- | --- | --- | --- | --- | --- | --- | --- | --- |
| 14-3-3β: 14-3-3 isoform protein overexpressed by DNA transfection; increases the transcriptional activity of PPARγ2 by binding to PPARγ2 | further increased | further increased | increased |  |  |  |  |  |  |  |
| CCCCCCCC/C=C\CCCCCCCC(=O)O [oleic acid] |  |  |  | increased | increased | no changes | increased | increased | no changes | increased |
| 14-3-3γ: 14-3-3 isoform protein overexpressed by DNA transfection; decreases the transcriptional activity of PPARγ2; proposed active ingredient | reduced | reduced | reduced |  |  |  |  |  |  |  |
